Results: patent publication US20210181109A1 (FUJIFILM Corporation, priority 2018, published 2021)

Tests used:
[1] = NAC depletion percent, HPLC-fluorescence detection
Method: (§1) 1) To a 50 mL vessel, 11.6 mg (±0.1 mg) of NAC is weighed; to this, a 25 mL measuring pipet is used to add 20 mL of 100 mmol/L phosphate buffer (pH: 8.0); and the content is gently stirred using a test tube mixer to achieve dissolution (2 mmol/L). 2) To a 500 mL vessel, 149.5 mL of this buffer is added using a 50 mL measuring pipet; to this, 0.5 mL of the above-described 2 mmol/L NAC solution is added; and the content is mixed by inversion to achieve 300-fold dilution (6.667 μmon).
(§2) The test substance undiluted solution is defined as an “undiluted solution”, and used. Incidentally, this “undiluted solution” may be appropriately diluted to, for example, 1/10, 1/100, or 1/1000, using an appropriate solvent, and the resultant solution may be used.
(§3) Subsequently, the solution having the maximum dissolution concentration is defined as an “undiluted solution”, and tested. Incidentally, this “undiluted solution” may be appropriately diluted to, for example, 1/10, 1/100, or 1/1000, using an appropriate solvent, and the resultant solution may be used.
(§4) The test substance is prepared at 1 mmol/L in any of solvents that are water, acetonitrile, acetone, and a 5 mass % dimethyl sulfoxide (DMSO)/acetonitrile solution and used as a test substance solution. As the solvent, a solvent in which the test substance dissolves at 1 mmol/L is used; when the test substance is soluble in a plurality of solvents, the solvent is selected in the following order of decreasing precedence: water, acetonitrile, acetone, and 5 mass % DMSO/acetonitrile.
(§5) Test substance solutions are prepared on a 96-well plate (U96 PP-0.5 ML NATURAL, Thermo Fisher Scientific Inc. (NUNC)) mainly using a 12-channel pipette, and a reagent is added in accordance with the following formula.
(§6) Nucleophilic reagent (NAC and NAL): 150 μL
(§7) Test substance solution: 50 μL
(§8) The plate is tightly sealed using a plate sealing (Resistant embossed seal, SHIMADZU GLC Ltd.), and stirred using a plate shaker (Titramax 100, Heidolph Instruments GmbH & CO. KG). The plate is subjected to spinning down using a centrifuge, and then to incubation at 25° C., for 24 hours, in a light-shielded state.
(§9) After the incubation for 24 hours, the plate sealing is removed; to each sample, 50 µL of the reaction stopping solution is added to stop the reaction.
(§10) The HPLC measurement conditions for the nucleophilic reagents are as follows.
(§11) From the average values (each, n=3) of peak areas of the post-reaction unreacted NAC or NAL and the blank-test (after performing the reaction step without addition of the test substances) NAC or NAL, the following formula is used to calculate the depletion percent of NAC or NAL.
(§12) NAC depletion percent (% depletion)=[1−(Average value of peak areas of post-reaction unreacted NAC/Average value of peak areas of blank-test (after performing the reaction step without addition of the test substances) NAC)]×100
(§13) The average value of peak areas of the post-reaction unreacted NAC is the average value of areas obtained by measuring three times post-reaction unreacted NAC. The average value of peak areas of blank-test (after performing the reaction step without addition of the test substances) NAC is the average value of areas obtained by measuring three times blank-test (after performing the reaction step without addition of the test substances) NAC.
(§14) The reactions were each performed on a 96-well plate, and the number of samples of each case was set to n=3. In addition, as controls, reaction solutions including the solvent alone were prepared. The reaction solutions were prepared so as to have a NAC or NAL concentration of 5 μmon. To the reaction solutions after the lapse of 24 hours, a trifluoroacetic acid (TFA) aqueous solution was added such that the final concentration became 0.5% (v/v) TFA. Subsequently, HPLC was performed for measurements by two detection methods that were light absorption detection using a photodiode array (PDA) detector, and fluorescence detection using a fluorescence detector.

[2] = NAL depletion percent, HPLC-UV detection (281 nm)
Method: as §1, with “12.6” for “11.6”, “NAL” for “NAC”, “10.2);” for “8.0);”, “mixture” for “mixer”, “mmol/L NAL solution).” for “mmol/L).”, “μmol/L).” for “μmon).”
as §2, §3, §4, §5, §6, §7, §8, §9, §10, §11
(§15) NAL depletion percent (% depletion)=[1−(Average value of peak areas of post-reaction unreacted NAL/Average value of peak areas of blank-test (after performing the reaction step without addition of the test substances) NAL)]×100
(§16) The average value of peak areas of post-reaction unreacted NAL is the average value of areas obtained by measuring three times post-reaction unreacted NAL. The average value of peak areas of blank-test (after performing the reaction step without addition of the test substances) NAL is the average value of areas obtained by measuring three times blank-test (after performing the reaction step without addition of the test substances) NAL.
as §14

[3] = Average score of NAC and NAL depletion and prediction of skin allergenicity, UV method; conditions: for Average score: test substance solution 1 mmol/L; for Mean Depletion (%) (average score) / determination of skin allergenicity from average score: UV method; for determination of skin allergenicity from average score: criterion […]
Method: (§17) The average value (Average Score) of NAC and NAL depletion percents is calculated. In the resultant value, the second decimal place is rounded off.
(§18) Average value (Average Score) of NAC and NAL depletion percents=(NAC depletion percent+NAL depletion percent)/2
(§19) The depletion percent of at least one of NAC or NAL or the average score of the depletion percents of NAC and NAL is calculated, and whether or not the test substances are “allergenic substances” or “non-allergenic substances” is determined:
(§20) (1) in a case of performing evaluation based on the average value of the depletion percent of NAC and the depletion percent of NAL,
(§21) In the following Tables, S represents as being an allergenic substance and NS represents as being a non-allergenic substance.

[4] = Average score of NAC and NAL depletion and prediction of skin allergenicity, fluorescence method; conditions: for Average score: test substance solution 1 mmol/L; for determination of skin allergenicity from average score: criterion […]
Method: as §17, §18, §19, §20, §21

[5] = NAC depletion percent, HPLC-UV detection (281 nm)
Method: as §1, §2, §3, §4, §5, §6, §7, §8, §9, §10, §11, §12, §13, §14

[6] = NAL depletion percent, HPLC-fluorescence detection
Method: as §1, with “12.6” for “11.6”, “NAL” for “NAC”, “10.2);” for “8.0);”, “mixture” for “mixer”, “mmol/L NAL solution).” for “mmol/L).”, “μmol/L).” for “μmon).”
as §2, §3, §4, §5, §6, §7, §8, §9, §10, §11, §15, §16, §14

[7] = Fluorescence method, non-allergenic substance
[8] = Reference (UV method), non-allergenic substance
[9] = Reference (UV method), skin allergenicity prediction
[10] = Fluorescence method, skin allergenicity prediction
[11] = single substance, test substance solution 1 mmol/L, fluorescence method
[12] = single substance, test substance solution 1 mmol/L, Reference (UV method)
[13] = single substance, Reference (UV method)
[14] = single substance, fluorescence method
[15] = 1/1 (undiluted solution), fluorescence method, 25° C. 24 hours
[16] = 1/10 diluted solution, fluorescence method
[17] = 1/1 (undiluted solution), UV method
[18] = 1/10 diluted solution, UV method
[19] = 1/1 (undiluted solution), fluorescence method

Row | SMILES | NAC depletion (%) [1, 7] [%] | NAL depletion (%) [2, 8] [%] | Prediction result [3, 9] | Prediction result [4, 10] | NAC depletion (%) [5, 8] [%] | NAL depletion (%) [6, 7] [%] | other results
1 | CC(O)C(=O)O (centres unmarked) [Lactic acid] | 1.4 | 2.8 | NS (NS represents as being a non-allergenic substance) | NS (NS represents as being a non-allergenic substance) | 0.0 | 0.0 | –
2 | CC(C=O)Cc1ccc(C(C)(C)C)cc1 (centres unmarked) [Lilial] | – | – | – | – | – | – | NAC depletion (%) [1, 11]: 18.0%; NAL depletion (%) [2, 12]: 3.9%; Prediction result [3]: S (key: S represents as being an allergenic substance; NS represents as being a non-allergenic substance); Average score [3, 13]: 5.4%; Prediction result [4]: S (key: S represents as being an allergenic substance; NS represents as being a non-allergenic substance); Average score [4, 14]: 9.1%; NAC depletion (%) [5, 12]: 7.0%; NAL depletion (%) [6, 11]: 0.2%
3 | COC(=O)c1ccccc1O [Methyl salicylate] | 0.3 | 0.4 | NS (NS represents as being a non-allergenic substance) | NS (NS represents as being a non-allergenic substance) | 0.0 | 0.0 | –
4 | COC(=O)c1ccc(O)cc1 [Methylparaben] | 0.7 | 1.3 | NS (NS represents as being a non-allergenic substance) | NS (NS represents as being a non-allergenic substance) | 0.1 | 4.7 | –
5 | CCCCCCCC(=O)O [Octanoic acid] | 0.0 | 1.2 | NS (NS represents as being a non-allergenic substance) | NS (NS represents as being a non-allergenic substance) | 0.0 | 0.0 | –
6 | O=C(O)C(=O)O [Oxalic acid] | – | – | – | – | – | – | NAC depletion (%) [1, 11]: 0.0%; NAL depletion (%) [2, 12]: 3.6%; Average score [3, 13]: 1.8%; Average score [4, 14]: 0.1%; NAC depletion (%) [5, 12]: 0.0%; NAL depletion (%) [6, 11]: 0.3%
7 | CC(O)CO (centres unmarked) [Propylene glycol] | 0.7 | 2.2 | NS (NS represents as being a non-allergenic substance) | NS (NS represents as being a non-allergenic substance) | 0.1 | 5.0 | –
8 | O=C(O)c1ccc(O)c(O)c1 [Protocatechuic acid] | – | – | – | – | – | – | NAC depletion (%) [1, 15]: 58.1%; NAC depletion (%) [1, 16]: 27.3%; NAL depletion (%) [2, 17]: 18.6%; NAL depletion (%) [2, 18]: 11.9%; Mean Depletion (%) (average score) ([3]; 1/1 (undiluted solution)): 39.7%; determination of skin allergenicity from average score ([3]; 1/1 (undiluted solution)): having skin allergenicity; Mean Depletion (%) (average score) ([3]; 1/10 diluted solution): 21.0%; determination of skin allergenicity from average score ([3]; 1/10 diluted solution): having skin allergenicity; Mean Depletion (%) (average score) [4, 19]: 48.2%; determination of skin allergenicity from average score [4, 19]: having skin allergenicity; Mean Depletion (%) (average score) [4, 16]: 19.4%; determination of skin allergenicity from average score [4, 16]: having skin allergenicity; NAC depletion (%) [5, 17]: 60.8%; NAC depletion (%) [5, 18]: 30.1%; NAL depletion (%) [6, 15]: 38.3%; NAL depletion (%) [6, 16]: 11.5%
9 | Oc1cccc(O)c1 [Resorcinol] | – | – | – | – | – | – | NAC depletion (%) [1, 11]: 0.8%; NAL depletion (%) [2, 12]: 2.2%; Prediction result ([3]; single substance, Reference (UV method), criterion average score […]): NS (NS represents as being a non-allergenic substance); Average score [3, 13]: 3.1%; Prediction result ([4]; single substance, fluorescence method, criterion average score […]): NS (NS represents as being a non-allergenic substance); Average score [4, 14]: 1.2%; NAC depletion (%) [5, 12]: 4.0%; NAL depletion (%) [6, 11]: 1.6%
10 | O=C(O)c1ccccc1O [Salicylic acid] | 0.1 | 0.4 | NS (NS represents as being a non-allergenic substance) | NS (NS represents as being a non-allergenic substance) | 0.0 | 4.3 | –
11 | Nc1ccc(S(N)(=O)=O)cc1 [Sulfanilamide] | 0.5 | 1.4 | NS (NS represents as being a non-allergenic substance) | NS (NS represents as being a non-allergenic substance) | 0.0 | 3.6 | –
12 | Nc1ccc(S(=O)(=O)O)cc1 [Sulfanilic acid] | 0.0 | 0.4 | NS (NS represents as being a non-allergenic substance) | NS (NS represents as being a non-allergenic substance) | 0.5 | 0.1 | –
13 | COc1cc(C=O)ccc1O [Vanillin] | 2.0 | 1.9 | NS (NS represents as being a non-allergenic substance) | NS (NS represents as being a non-allergenic substance) | 1.5 | 0.0 | –
